# Where “and” joins values, the source holds several entries; their conditions need not be identical. Equal entries are not always repeated. Inconclusive results and toxic doses are left out.
# Tested on: BDF1 mice, P388 leukemia ip, median survival T/C
# Test: NCI In Vivo Anticancer Drug Screen. Data for tumor model P388 Leukemia (intraperitoneal) in B6D2F1 (BDF1) mice
# Conditions: endpoint: median survival time, higher = longer survival
# Procedure, shortened: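 Compound-treated tumour-bearing mice were compared with vehicle-treated controls. Survival was recorded, and the value is the treated-group measurement divided by the control-group measurement (T/C).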
# [1] = dose: 50.0 mg/kg/injection, schedule: Q01DX009 (ip), vehicle: saline with Tween-80
# [2] = dose: 100.0 mg/kg/injection, schedule: Q01DX009 (ip), vehicle: saline with Tween-80
# [3] = dose: 200.0 mg/kg/injection, schedule: Q01DX009 (ip), vehicle: saline with Tween-80
# [4] = dose: 100.0 mg/kg/injection, schedule: Q04DX003 (ip), vehicle: saline with Tween-80
# [5] = dose: 400.0 mg/kg/injection, schedule: Q04DX003 (ip), vehicle: saline with Tween-80
# [6] = dose: 200.0 mg/kg/injection, schedule: Q04DX003 (ip), vehicle: saline with Tween-80
compound,measurement,setting,value
COc1cc2c(cc1OC)C1C(=CCC3c4cc(OC)c(OC)cc4CC[N+]31C)C=C2 (stereo not drawn),T/C,"dose: 6.25 mg/kg/injection, schedule: Q01DX009 (ip), vehicle: saline with Tween-80",95 % of control
same,T/C,"dose: 12.5 mg/kg/injection, schedule: Q01DX009 (ip), vehicle: saline with Tween-80",104 % of control
same,T/C,"dose: 25.0 mg/kg/injection, schedule: Q01DX009 (ip), vehicle: saline with Tween-80",116 % of control
ClC1=C(Cl)C(Cl)=C(Cl)C1=NN=C1C(Cl)=C(Cl)C(Cl)=C1Cl,T/C,"dose: 50.0 mg/kg/injection, schedule: Q01DX001 (ip), vehicle: saline with Tween-80",100 % of control
same,T/C,"dose: 100.0 mg/kg/injection, schedule: Q01DX001 (ip), vehicle: saline with Tween-80",95 % of control
same,T/C,"dose: 200.0 mg/kg/injection, schedule: Q01DX001 (ip), vehicle: saline with Tween-80",90 % of control
S=C(Nc1ccccc1)NC1CCCCCC1,T/C,"dose: 75.0 mg/kg/injection, schedule: Q04DX003 (ip), vehicle: Klucel (hydroxypropylcellulose) (HPC)",90 % of control
same,T/C,"dose: 150.0 mg/kg/injection, schedule: Q04DX003 (ip), vehicle: Klucel (hydroxypropylcellulose) (HPC)",100 % of control
same,T/C,"dose: 300.0 mg/kg/injection, schedule: Q04DX003 (ip), vehicle: Klucel (hydroxypropylcellulose) (HPC)",110 % of control
c1ccc2c(c1)Cn1c-2nc2ccccc21,T/C,"dose: 100.0 mg/kg/injection, schedule: Q04DX003 (ip), vehicle: other",118 % of control
same,T/C,"dose: 200.0 mg/kg/injection, schedule: Q04DX003 (ip), vehicle: other",109 % of control
same,T/C,"dose: 400.0 mg/kg/injection, schedule: Q04DX003 (ip), vehicle: other",113 % of control
CCOC(=O)NP(=O)(N1CC1)N1CC1,T/C,"dose: 2.1 mg/kg/injection, schedule: Q04DX003 (ip), vehicle: saline",105 % of control
same,T/C,"dose: 3.1 mg/kg/injection, schedule: Q04DX003 (ip), vehicle: saline",110 % of control
same,T/C,"dose: 11.0 mg/kg/injection, schedule: Q04DX003 (ip), vehicle: saline",272 % of control
same,T/C,"dose: 25.0 mg/kg/injection, schedule: Q04DX003 (ip), vehicle: saline",225 % of control
same,T/C,"dose: 33.0 mg/kg/injection, schedule: Q04DX003 (ip), vehicle: saline",333 % of control and 220 % of control
same,T/C,"dose: 50.0 mg/kg/injection, schedule: Q04DX003 (ip), vehicle: saline",300 % of control and 172 % of control and 195 % of control
same,T/C,"dose: 75.0 mg/kg/injection, schedule: Q04DX003 (ip), vehicle: saline",88 % of control and 95 % of control
O=C1c2cccc(O)c2C(=O)c2c(O)cccc21,T/C,"dose: 100.0 mg/kg/injection, schedule: Q04DX003 (ip), vehicle: saline",100 % of control and 109 % of control
same,T/C,"dose: 200.0 mg/kg/injection, schedule: Q04DX003 (ip), vehicle: saline",109 % of control
same,T/C,"dose: 400.0 mg/kg/injection, schedule: Q04DX003 (ip), vehicle: saline",95 % of control and 118 % of control
CN(C)N=Nc1cn(C2OC(CO)C(O)C2O)c(=O)[nH]c1=O (stereo not drawn),T/C,"dose: 9.0 mg/kg/injection, schedule: Q01DX009 (ip), vehicle: saline",115 % of control
same,T/C,"dose: 18.0 mg/kg/injection, schedule: Q01DX009 (ip), vehicle: saline",110 % of control
same,T/C,"dose: 25.0 mg/kg/injection, schedule: Q01DX009 (ip), vehicle: saline",100 % of control
same,T/C,"dose: 37.5 mg/kg/injection, schedule: Q01DX009 (ip), vehicle: saline",300 % of control and 120 % of control
same,T/C,"dose: 50.0 mg/kg/injection, schedule: Q01DX009 (ip), vehicle: saline",120 % of control
same,T/C,"dose: 75.0 mg/kg/injection, schedule: Q01DX009 (ip), vehicle: saline",300 % of control and 150 % of control
same,T/C,"dose: 150.0 mg/kg/injection, schedule: Q01DX009 (ip), vehicle: saline",300 % of control and 180 % of control
same,T/C,"dose: 400.0 mg/kg/injection, schedule: Q01DX009 (ip), vehicle: saline",150 % of control
CCCCCCCCCCCCCCCC(=O)OCC1OC(CO)(OC2OC(CO)C(O)C(O)C2O)C(O)C1O (stereo not drawn),T/C,"dose: 100.0 mg/kg/injection, schedule: Q04DX003 (ip), vehicle: Klucel (hydroxypropylcellulose) (HPC)",104 % of control
same,T/C,"dose: 200.0 mg/kg/injection, schedule: Q04DX003 (ip), vehicle: Klucel (hydroxypropylcellulose) (HPC)",112 % of control
COc1cc2ccccc2c(-c2c(O)c(OC)cc3ccccc23)c1O,T/C,[1],91 % of control
same,T/C,[2],86 % of control
same,T/C,[3],88 % of control
COC1=C(C)C(=O)c2c(c(COC(N)=O)c3n2CC2C3N2C)C1=O (stereo not drawn),T/C,"dose: 2.0 mg/kg/injection, schedule: Q01DX009 (ip), vehicle: saline sonified",120 % of control
CCCCOC(=O)c1cccc(C(=O)OCCCC)c1Sc1ccccc1,T/C,"dose: 50.0 mg/kg/injection, schedule: Q01DX009 (ip), vehicle: other",105 % of control
same,T/C,"dose: 100.0 mg/kg/injection, schedule: Q01DX009 (ip), vehicle: other",100 % of control
same,T/C,"dose: 200.0 mg/kg/injection, schedule: Q01DX009 (ip), vehicle: other",107 % of control
OCC1CSCN1 (stereo not drawn),T/C,"dose: 50.0 mg/kg/injection, schedule: Q04DX002 (ip), vehicle: saline",100 % of control
same,T/C,"dose: 100.0 mg/kg/injection, schedule: Q04DX002 (ip), vehicle: saline",103 % of control
same,T/C,"dose: 200.0 mg/kg/injection, schedule: Q04DX002 (ip), vehicle: saline",98 % of control
CC(=O)Nc1ccn(C2OC(COC(C)=O)C(OC(C)=O)C2OC(C)=O)c(=O)n1 (stereo not drawn),T/C,[4],109 % of control
same,T/C,"dose: 177.0 mg/kg/injection, schedule: Q04DX003 (ip), vehicle: saline with Tween-80",104 % of control
same,T/C,"dose: 266.0 mg/kg/injection, schedule: Q04DX003 (ip), vehicle: saline with Tween-80",100 % of control and 116 % of control
same,T/C,[5],108 % of control and 118 % of control
C1=C(c2ccccc2)C(c2ccccc2)=C(c2ccccc2)C(c2ccccc2)C(c2ccccc2)=N1 (stereo not drawn),T/C,[1],100 % of control
same,T/C,[2],92 % of control
same,T/C,[3],106 % of control
O=C(O)C1CCC[N-]C1.O=C(O)C1CCC[N-]C1.[Cl][Pt+2][Cl] (stereo not drawn),T/C,"dose: 5.0 mg/kg/injection, schedule: Q04DX003 (ip), vehicle: saline",95 % of control
same,T/C,"dose: 10.0 mg/kg/injection, schedule: Q04DX003 (ip), vehicle: saline",86 % of control
same,T/C,"dose: 20.0 mg/kg/injection, schedule: Q04DX003 (ip), vehicle: saline",95 % of control
O=C1CCC(NC2OC(=O)c3ccccc32)C(=O)O1 (stereo not drawn),T/C,[1],111 % of control
same,T/C,[2],102 % of control
same,T/C,[3],109 % of control
C1=CC2(OCCO2)C2CC=CC3(OCCO3)C2C1 (stereo not drawn),T/C,"dose: 12.5 mg/kg/injection, schedule: Q01DX009 (ip), vehicle: Klucel (hydroxypropylcellulose) (HPC)",114 % of control
same,T/C,"dose: 25.0 mg/kg/injection, schedule: Q01DX009 (ip), vehicle: Klucel (hydroxypropylcellulose) (HPC)",110 % of control and 123 % of control
same,T/C,"dose: 200.0 mg/kg/injection, schedule: Q01DX009 (ip), vehicle: Klucel (hydroxypropylcellulose) (HPC)",117 % of control
O=S(=O)(Nc1ccccc1)c1ccc(C2CC3(Cl)C(Cl)=C(Cl)C2(Cl)C3(Cl)Cl)cc1 (stereo not drawn),T/C,[4],91 % of control
same,T/C,[6],91 % of control
same,T/C,[5],91 % of control
N#CN(Cc1ccc(Cl)cc1Cl)C(=O)OCOc1ccc(Cl)cc1,T/C,[4],100 % of control
same,T/C,[6],90 % of control
same,T/C,[5],109 % of control
O=[N+]([O-])c1cc([N+](=O)[O-])c2ccccc2c1NS(=O)(=O)c1ccc(Cl)c(Cl)c1Cl,T/C,[1],104 % of control
same,T/C,[2],120 % of control
CSc1ncnc2c1ncn2CO,T/C,"dose: 30.0 mg/kg/injection, schedule: Q01DX009 (ip), vehicle: Klucel (hydroxypropylcellulose) (HPC)",110 % of control
same,T/C,"dose: 30.0 mg/kg/injection, schedule: Q01DX009 (ip), vehicle: saline",108 % of control
same,T/C,"dose: 100.0 mg/kg/injection, schedule: Q01DX009 (ip), vehicle: Klucel (hydroxypropylcellulose) (HPC)",150 % of control
same,T/C,[2],154 % of control
same,T/C,"dose: 120.0 mg/kg/injection, schedule: Q01DX009 (ip), vehicle: Klucel (hydroxypropylcellulose) (HPC)",150 % of control
same,T/C,"dose: 150.0 mg/kg/injection, schedule: Q01DX009 (ip), vehicle: Klucel (hydroxypropylcellulose) (HPC)",90 % of control
same,T/C,[5],95 % of control
CC1(C)CCC(C)(C)c2c1ccc(O)c2Sc1c(O)ccc2c1C(C)(C)CCC2(C)C,T/C,[1],97 % of control
same,T/C,[2],97 % of control and 119 % of control
same,T/C,[3],102 % of control and 104 % of control
same,T/C,"dose: 400.0 mg/kg/injection, schedule: Q01DX009 (ip), vehicle: saline with Tween-80",93 % of control
C=C1C(=O)OC2/C=C(\C)C3(O)OC(C)(CC(OC(=O)C(C)C)C12)CC3O (stereo not drawn),T/C,"dose: 10.0 mg/kg/injection, schedule: Q01DX009 (ip), vehicle: saline",96 % of control
same,T/C,"dose: 40.0 mg/kg/injection, schedule: Q01DX009 (ip), vehicle: saline",96 % of control
O=c1oc2ccccc2n1Cc1ccc(Cl)cc1,T/C,"dose: 25.0 mg/kg/injection, schedule: Q01DX005 (ip), vehicle: saline with Tween-80",92 % of control
same,T/C,"dose: 50.0 mg/kg/injection, schedule: Q01DX005 (ip), vehicle: saline with Tween-80",99 % of control
same,T/C,"dose: 200.0 mg/kg/injection, schedule: Q01DX005 (ip), vehicle: saline with Tween-80",94 % of control
CSc1nc(Cl)c(Br)c(Sc2nc(N)nc3nc[nH]c23)n1,T/C,"dose: 132.0 mg/kg/injection, schedule: Q04DX003 (ip), vehicle: saline with Tween-80",120 % of control
